Data set [1] has as its target T1, CYP121 (Mycobacterium tuberculosis, UniProt P9WPP7). The class given is binding.
The target of data set [2] is T1, CYP121. Kind of data set: Single shot UV–vis absorbance assay (Soret band shift, competition with type II inhibitor) on CYP121. The conditions noted are these: for Binding Mode, CYP121: analogues 100 μM or 1 mM, P450 2.5–5 μM. The class given is binding.
The target in the next data set is T2, CYP125 (Mycobacterium tuberculosis, UniProt P9WPP1).
T2 sequence (P9WPP1 1-433): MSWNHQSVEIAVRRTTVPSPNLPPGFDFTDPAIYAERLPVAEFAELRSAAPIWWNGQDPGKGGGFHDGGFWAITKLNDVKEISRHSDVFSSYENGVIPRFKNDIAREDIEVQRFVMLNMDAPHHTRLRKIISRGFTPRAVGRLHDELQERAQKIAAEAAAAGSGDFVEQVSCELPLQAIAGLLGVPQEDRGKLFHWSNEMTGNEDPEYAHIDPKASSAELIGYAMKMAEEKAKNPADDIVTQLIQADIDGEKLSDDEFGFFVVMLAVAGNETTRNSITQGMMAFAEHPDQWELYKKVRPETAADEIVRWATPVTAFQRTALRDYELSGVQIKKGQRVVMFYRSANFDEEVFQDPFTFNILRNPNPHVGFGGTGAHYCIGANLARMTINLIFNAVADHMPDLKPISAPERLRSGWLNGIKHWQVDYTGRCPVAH
As to the kind of experiment: Single shot UV–vis binding mode assay on CYP125.

In the next data set the test system is Mtb H37Rv. Kind of data set: Antimycobacterial activity assay (MIC90). The format is cell-based, Mycobacterium tuberculosis. Details: key to MIC90: “N” indicates that compounds did not produce any significant cell death within the tested concentration range. The conditions noted are these: triplicate, 0–100 μM, 2 weeks.
Data set [3] has as its target T1, CYP121. Kind of data set: Native mass spectrometry of CYP121 with ligands. The format is binding.
The next data set addresses T3, CYP144TR (Mycobacterium tuberculosis, UniProt P9WPL1).
T3 sequence (P9WPL1 31-434 limits assumed): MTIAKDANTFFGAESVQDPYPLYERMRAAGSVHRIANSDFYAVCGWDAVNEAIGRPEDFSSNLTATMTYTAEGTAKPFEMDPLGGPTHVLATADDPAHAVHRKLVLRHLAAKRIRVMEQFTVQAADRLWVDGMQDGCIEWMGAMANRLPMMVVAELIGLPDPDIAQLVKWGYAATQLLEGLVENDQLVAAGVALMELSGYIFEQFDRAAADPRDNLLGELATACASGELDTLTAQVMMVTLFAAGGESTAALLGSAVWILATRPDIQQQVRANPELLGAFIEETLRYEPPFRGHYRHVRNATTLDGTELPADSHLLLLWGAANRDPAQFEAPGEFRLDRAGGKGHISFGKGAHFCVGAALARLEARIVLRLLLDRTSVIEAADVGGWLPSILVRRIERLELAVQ

In data set [4] the test system is CYP1A (combined CYP1A1 and CYP1A2). Kind of data set: Human P450 inhibition in human liver microsomes, CYP1A (ethoxyresorufin). The following applies: human.
The next data set addresses T4, CYP143 (Mycobacterium tuberculosis, UniProt P9WPL3).
T4 construct: made in house
Kind of data set: Single shot UV–vis binding mode assay on CYP143. The following applies: analogues 100 μM or 1 mM, P450 2.5–5 μM. Here is the method: UV–vis screening was performed using a CARY400 UV–vis spectrophotometer (Varian, CA, USA). Ligands were prepared as DMSO-d6 stock solutions (1–100 mM) and added to protein (5 μM) solutions (198 μL) or to buffer alone to give a final DMSO-d6 concentration of 1% v/v. CYP121 was prepared in 50 mM Tris-HCl (pH 7.2), 1 mM EDTA buffer. CYP125, CYP126, CYP142, CYP143, and CYP144 were prepared in 50 mM Tris-HCl (pH 7.5), 100 mM KCl buffer. CYP124 was prepared in 100 mM potassium phosphate (pH 7.0), 100 mM KCl buffer. Spectra were recorded between 800 and 250 nm at 25 °C. Any spectral interference from the inherent absorbance of added ligands/solvent was removed by subtracting spectra collected for protein-free samples of the same ligands/solvent in buffer. The difference in Soret wavelength maximum (Δλmax) of the respective P450s Soret band (λmax) in the presence of ligands compared to that obtained for a 1% v/v DMSO-d6 control was used to identify type I or type II heme-binding interactions. […]
The difference in the red-shift of the Soret band between competition assays and that found for the known type II ligand in the absence of competing ligands was used to determine competitive binding. Buffer control spectra were collected to account for any inherent absorbance of added ligands/solvent and all solutions were inspected and found to be free of precipitate. […]

For the next data set, the system named is CYP1A. As to the kind of experiment: Human P450 inhibition in human liver microsomes, CYP1A (ethoxyresorufin). The following applies: IC50 for CYP1A versus CYP121 KD.
The data set “native MS” concerns the molecule itself. As to the kind of experiment: native MS.

≈ marks a conversion by molar mass, not a printed value. Like-named read-outs stand apart in the source and are kept apart here.

T4 sequence (P9WPL3 whole entry): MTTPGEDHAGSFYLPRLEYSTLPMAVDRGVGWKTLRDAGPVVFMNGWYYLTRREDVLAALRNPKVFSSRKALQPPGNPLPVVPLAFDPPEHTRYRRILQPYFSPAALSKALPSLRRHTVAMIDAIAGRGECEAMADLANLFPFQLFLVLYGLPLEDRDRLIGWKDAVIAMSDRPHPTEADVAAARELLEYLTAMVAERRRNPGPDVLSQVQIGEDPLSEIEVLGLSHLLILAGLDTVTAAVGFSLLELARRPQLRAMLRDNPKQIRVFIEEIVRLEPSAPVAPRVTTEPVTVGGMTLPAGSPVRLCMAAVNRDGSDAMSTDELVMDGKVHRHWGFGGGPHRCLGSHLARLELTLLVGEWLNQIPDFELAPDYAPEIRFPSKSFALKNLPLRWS

For `Nc1cccc(-c2cccc(-c3c(-c4ccc(O)cc4)n[nH]c3N)c2)c1` [25a, 4-(5-Amino-4-(3′-amino-[1,1′-biphenyl]-3-yl)-1H-pyrazol-3-yl)phenol], at CYP121 [1], the “LE (ligand efficiency)” value was determined as 0.41. Further, at CYP121 [2] (UV–vis spectroscopy), the “shifts in the CYP121 optical spectrum” value is on record as “type II shifts”. Further, the “Δλmax (type II shift)” value at CYP121 [2] (ligand 100 μM, CYP121) is “+5.0 nm”. For the same molecule, the “Binding Mode, CYP125” value on CYP125 was “N”. In addition, the MIC90 in the data set with Mtb H37Rv (Mycobacterium tuberculosis, 336 h, read-out: MIC90) is 100 µM (≈ 34.2 µg/mL). On CYP121 [3] (Protein-Ligand Ratio 1:0.5), the “Monomer (%) of CYP121” value is listed as 14%; the “ligand binding stoichiometry, CYP121 Dimer” value is reported as 1; the “ligand binding stoichiometry, CYP121 Monomer” value is on record as 1. Further, on CYP121 [3] (Protein-Ligand Ratio 1:1), the “Monomer (%) of CYP121” value is 13%; the “ligand binding stoichiometry, CYP121 Dimer” value is recorded as 2; the “ligand binding stoichiometry, CYP121 Monomer” value was determined as 1. At CYP121 [3] (Protein-Ligand Ratio 1:25), the “Monomer (%) of CYP121” value was determined as 0%; the “ligand binding stoichiometry, CYP121 Dimer” value turned out to be 2; the “ligand binding stoichiometry, CYP121 Monomer” value is 1. The “Binding Mode, CYP144TR” value on CYP144TR was “N”. The selectivity ratio in [4] was approximately 15000.
For the molecule `Nc1cccc(-c2cc(-c3c(-c4ccc(O)cc4)n[nH]c3N)ccc2O)c1` [25b, 3′-Amino-5-(5-amino-3-(4-hydroxyphenyl)-1H-pyrazol-4-yl)-[1,1′-biphenyl]-2-ol], at CYP125, the “Binding Mode, CYP125” value is “N”. The “Binding Mode, CYP144TR” value at CYP144TR was “N”.
With `Oc1ccc(CNc2[nH]nc(-c3ccc(O)cc3)c2-c2ccc(O)cc2)cc1` [26a, 4,4′-(5-((4-Hydroxybenzyl)amino)-1H-pyrazole-3,4-diyl)diphenol], the “LE (ligand efficiency)” value at CYP121 [1] is on record as 0.25. On CYP121 [2], the “Binding Mode, CYP121” value is reported as “N”. In addition, the “Binding Mode, CYP143” value on CYP143 is “N”. Further, in the data set on Mtb H37Rv, the MIC90 result is “N”. For the same molecule, the “Monomer (%) of CYP121” value at CYP121 [3] (Protein-Ligand Ratio 1:0.5) was found to be 14%; on CYP121 [3] (Protein-Ligand Ratio 1:1), 29%; on CYP121 [3] (Protein-Ligand Ratio 1:25), 14%. The “ligand binding stoichiometry, CYP121 Dimer” value on CYP121 [3] (Protein-Ligand Ratio 1:0.5) amounted to 1; at CYP121 [3] (Protein-Ligand Ratio 1:1) it was 1; at CYP121 [3] (Protein-Ligand Ratio 1:25), 2. The entries for the “ligand binding stoichiometry, CYP121 Monomer” value on CYP121 [3] (Protein-Ligand Ratio 1:0.5), at CYP121 [3] (Protein-Ligand Ratio 1:1) and on CYP121 [3] (Protein-Ligand Ratio 1:25) were 0, 0 and 1, respectively. In addition, the “Binding Mode, CYP144TR” value on CYP144TR is reported as “N”. The “app SR (IC50/KD)” value with CYP1A is on record as more than 4.
Regarding `O=c1cc(-c2ccccc2)oc2c1ccc1ccccc12` [alpha-naphthoflavone, reference compound], the IC50 in data set [4] (microsomes) amounted to 59.7 nM.
Turning to `Nc1[nH]nc(-c2ccc(O)cc2)c1-c1ccc(O)cc1` [compound 5, 4,4′-(5-Amino-1H-pyrazole-3,4-diyl)diphenol], at CYP121 [1] (Gibbs free energy of binding to CYP121 divided by number of heavy atoms (ΔG/HA)), the “LE (ligand efficiency)” value was found to be 0.30. Moreover, the “Binding Mode, CYP121” value on CYP121 [2] was “N”. Besides, the “Binding Mode, CYP125” value at CYP125 is “N”. Further, at CYP143, the “Binding Mode, CYP143” value was “N”. Moreover, the MIC90 entry in the data set on Mtb H37Rv is on record as “N”. Besides, on CYP144TR, the “Binding Mode, CYP144TR” value is recorded as “N”.

B1: Mycobacterium tuberculosis CYP121 (Rv2276), His6-tagged construct (enzyme)
chain: MTATVLLEVPFSARGDRIPDAVAELRTREPIRKVRTITGAEAWLVSSYALCTQVLEDRRFSMKETAAAGAPRLNALTVPPEVVNNMGNIADAGLRKAVMKAITPKAPGLEQFLRDTANSLLDNLITEGAPADLRNDFADPLATALHCKVLGIPQEDGPKLFRSLSIAFMSSADPIPAAKINWDRDIEYMAGILENPNITTGLMGELSRLRKDPAYSHVSDELFATIGVTFFGAGVISTGSFLTTALISLIQRPQLRNLLHEKPELIPAGVEELLRINLSFADGLPRLATADIQVGDVLVRKGELVLVLLEGANFDPEHFPNPGSIELDRPNPTSHLAFGRGQHFCPGSALGRRHAQIGIEALLKKMPGVDLAVPIDQLVWRTRFQRRIPERLPVLW
On to B1, for which the “stoichiometry N” value in the data set “native MS” came to 2.
